The source of these data is patent publication US5763485A, “Method of treating catabolic, gut-associated pathological processes and impaired host defenses” (Brigham and Women's Hospital, priority 1995, dated 1998).

Series [1] in a line: Parenteral nutrition after 5-FU injury in rats: intestinal and hematological indices. The series is classed as in vivo. The note with it: all drug-treated animals, independent of diet.
Protocol: Rats were catheterized as previously described and after a minimum of 3 hr following recovery from anesthesia, groups of animals received 100, 150 or 200 mg/kg of 5-FU by i.p. injection. […] The nutrition infusion, started 4 hr after 5-FU or saline, was continued for 4 d. at a rate of 46 ml/24 hr.
Blood and intestinal tissue were sampled and prepared for analysis as described in the examples above. The hemoglobin, white blood cell and platelet numbers were determined as measures of the general hematological toxicity of the various doses of 5-FU.
All analyses were performed as previously described in Examples 6 and 7. Statistical analyses were performed using two-way analysis of variance comparing both diets and dose of 5-FU. Unpaired t tests were used to compare two treatment groups at one dose of 5-FU. Differences were considered statistically significant at a p value of <0.05.
The conditions of series [2]: rat. On the procedure: Lactulose is a non-metabolizable sugar that is poorly absorbed from the gastrointestinal tract. In gastrointestinal disorders such as inflammatory bowel disease, lactulose is taken up through gaps in the mucosal membrane, allowing its excretion in the urine. The amount of urinary lactulose is therefore a measure of "leakage" across the gut mucosal barrier (Menzies, Biochem. Soc. Trans. […]:1042-1047 (1974)).
Rats were treated with 5-fluorouracil as described in Example 8, above. Lactulose, 2 ml iso-osmolar solution of 100 mg/ml, was infused by gavage and urine was collected over the subsequent 24 hr and frozen. Urinary lactulose was determined enzymatically as described by Ziegler et al. (Arch. Surg. 123:1313-1319 (1988)).

A short description of series [3]: Urinary excretion and nitrogen balance after laparotomy in dogs. The settings on record: projected intake 0.312 gm N/24 hr/kg. The format is in vivo, dog.
Protocol: Urine excreted during the 24 hours of infusion was collected in the closed urinary collecting system and stored in acidified, refrigerated containers. Aliquots were stored frozen at -20° C. for batch analysis.
All solutions were infused at the rate of 4 ml/minute/kg. Five control animals received 0.9% saline. Amino acid solutions (Table V) containing BCCA's at three different concentrations (11%, 22%, or 44% of total amino acids) were prepared by adding amino acids to an 8.5% standard amino acid formula, FreAmine III (American McGaw, Irvine, Calif.). The total BCAA infusion rates were 0.46, 0.92, and 1.84 grams/24 hours/kg, respectively. All three amino acid solutions were isonitrogenous, providing approximately 0.624 grams of nitrogen/24 hours/kg, with a constant ratio of valine to leucine to isoleucine (1: 1.38:1.05). Nine animals received an 11% BCAA solution which was made by dissolving a mixture of non-essential amino acids (NEAA) in 2.13% FreAmine III to make a solution that provided 0.624 grams of nitrogen/24 hours/kg. […] Six animals received 4.25% FreAmine III alone (22% BCAA). The final seven animals received 2.13% FreAmine III supplemented with enough BCAA's to make a 44% solution. […] All solutions were sterilized by passage through a 0.22 uM filter (Millipore, Millis, Mass.) and stored overnight at 4° C. prior to administration. […]
The conditions of series [4]: intravenous feeding regimen; cited from earlier work.

Residues, ends and D or L forms follow the SMILES beside them.

Regarding `O=c1[nH]cc(F)c(=O)[nH]1` [5-FU, 5-fluorouracil], the “Circulating white blood cell and platelet counts” value in series [1] is “marked decline in the circulating white blood cell and platelet counts”. Also, in series [2], the “Gut permeability to lactulose” value is on record as “increase gut permeability to lactulose”; the “Time of peak increase in gut permeability” value was “between 24 and 48”.

In series [3], `NC(=O)CC[C@H](N)C(=O)O` [Glutamine, glutamine] came in with a Nitrogen balance of -0.386 ± 0.086 gm/24 hr/kg and a Nitrogen excretion of 0.709 ± 0.085 gm/24 hr/kg.

For the compound `C[C@H](N)C(=O)N[C@@H](CCC(N)=O)C(=O)O` [L-alanyl-L-glutamine] (H-Ala-Gln-OH), the Postoperative nitrogen balance entry in series [4] is “improve postoperative nitrogen balance”.
